In patent US7973032B2, “Staurosporine derivatives for use in alveolar rhabdomyosarcoma” (University of Zurich, priority 2005, dated 2011):

Columns and labels:
aRMS cells [1] = assay: cell growth of aRMS cells in vitro; type: cell-based
Description: (§1) Recently, we have established a gene signature characteristic for the Pediatric sarcoma alveolar rhabdomyosarcoma (aRMS), which expresses the chimaeric fusion protein PAX3/FKHR due to a chromosomal translocation event t(2; 13). Based on this signature, a number of potential therapeutic target molecules have been selected for further study, such as FGFR2. […] Furthermore, tumor growth could also be inhibited in vivo using a mouse xenograft tumor model.

aRMS cells [2] = assay: apoptosis / caspase 3 activity in aRMS cells; type: cell-based; settings: aRMS cells in vitro
Description: as §1

aRMS = assay: mouse xenograft tumor model; settings: in vivo
Description: as §1

PAX3/FKHR = biological target: T1, PAX3/FKHR (Homo sapiens, UniProt P23760+Q12778); assay: expression of PAX3/FKHR specific target gene CB1; type: cell-based; settings: upon treatment
T1 construct: FKHR (FOXO1, Q12778) C-terminal portion as fusion partner; endogenous in cells
T1 sequence (P23760+Q12778 fused): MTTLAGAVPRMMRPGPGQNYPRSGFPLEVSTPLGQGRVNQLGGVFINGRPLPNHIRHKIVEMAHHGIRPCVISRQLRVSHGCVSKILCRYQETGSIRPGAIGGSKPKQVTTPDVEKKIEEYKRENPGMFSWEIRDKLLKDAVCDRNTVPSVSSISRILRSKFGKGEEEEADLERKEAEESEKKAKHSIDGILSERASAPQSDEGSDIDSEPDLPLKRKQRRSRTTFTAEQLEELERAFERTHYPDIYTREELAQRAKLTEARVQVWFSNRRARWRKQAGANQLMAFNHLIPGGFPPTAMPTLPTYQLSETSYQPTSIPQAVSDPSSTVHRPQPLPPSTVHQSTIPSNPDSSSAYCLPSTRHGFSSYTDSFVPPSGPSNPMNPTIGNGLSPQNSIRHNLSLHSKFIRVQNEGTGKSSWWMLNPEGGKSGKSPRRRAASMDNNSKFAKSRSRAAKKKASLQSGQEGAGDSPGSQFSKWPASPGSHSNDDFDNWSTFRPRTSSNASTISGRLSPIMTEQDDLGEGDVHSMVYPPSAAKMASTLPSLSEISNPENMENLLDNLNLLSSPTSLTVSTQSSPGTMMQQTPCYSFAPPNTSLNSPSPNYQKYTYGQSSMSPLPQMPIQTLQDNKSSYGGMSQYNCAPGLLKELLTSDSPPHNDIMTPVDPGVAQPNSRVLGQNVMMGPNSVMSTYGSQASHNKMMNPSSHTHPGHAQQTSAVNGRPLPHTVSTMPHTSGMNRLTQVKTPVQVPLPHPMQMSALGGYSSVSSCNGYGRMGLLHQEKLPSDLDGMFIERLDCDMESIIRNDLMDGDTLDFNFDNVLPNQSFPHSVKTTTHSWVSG

Q: What does the source list for `CO[C@@H]1[C@H](N(C)C(=O)c2ccccc2)C[C@H]2O[C@]1(C)n1c3ccccc3c3c4c(c5c6ccccc6n2c5c31)C(=O)NC4` [PKC412, N-[(9S,10R,11R,13R)-2,3,10,11,12,13-hexahydro-10-methoxy-9-methyl-1-oxo-9,13-epoxy-1H,9H-diindolo[1,2,3-gh:3′,2′,1′-Im]pyrrolo[3,4-j][1,7]benzodiazonin-11-yl]-N-methylbenzamide]?
A: cell growth of aRMS cells (aRMS cells [1]): efficiently inhibit cell growth; apoptosis (aRMS cells [2]): induce apoptosis; caspase 3 activity (aRMS cells [2]): enhanced caspase 3 activity; tumor growth (aRMS): inhibited; CB1 expression (PAX3/FKHR): completely abolished
